Reference: patent publication US12661336B2, “Polymorphs of phenyl pyrrole aminoguandium salts” (SYNACT PHARMA APS, priority 2021, dated 2026)
Where a name gives a salt, the structure may show the parent alone. Read-outs that look alike come from different tables or passages of the source.

Key:
[1] = buffer solution pH 1.2, pH adjusted to 1.2 with concentrated hydrochloric acid, samples fully dissolved, HPLC
Procedure: As a result, the pH was adjusted to 1.2 with concentrated hydrochloric acid in both solutions. Both sample preparations were diluted 500 times with the sample diluent (acetonitrile:water 1:1 v/v).

[2] = Thermodynamic solubility of AP1189 salts in 0.5 M and 0.2 M buffer solutions (Example 6, Tables 38a, 38b); conditions: for XRPD analysis of residual solids from solubility experiment / Solubility (mM freebase): 0.5 M buffer; for Solubility (mM freebase): 24 h
[3] = 40° C./75% RH for 24 hours
Procedure: The resulting mixture was thermally cycled for 3 days between 40° C. and 5° C. (Ramp rate: 0.1° C./min with isothermal holds of 1 hour at 40° C. and 5° C.).
The resulting mixture was thermally cycled for 3 days between 40° C. and 5° C. (Ramp rate: 0.1° C./min with isothermal holds of 1 hour at 40° C. and 5° C.). Solids were isolated by centrifuge filtration and analysed wet by XRPD. Sample was dried at 40° C. under vacuum for 24 hours then reanalysed by XRPD.
The resulting mixture was thermally cycled for 3 days between 40° C. and 5° C. (Ramp rate: 0.1° C./min with isothermal holds of 1 hour at 40° C. and 5° C.). Solids were isolated by centrifuge filtration and analysed wet by XRPD.

Compound: CC(=O)O.N=C(N)NN=CC=Cc1cccn1-c1ccccc1[N+](=O)[O-] [AP1189 acetate, N-{3-[1-(2-nitrophenyl)-1H-pyrrol-2-yl]-allylidene}-aminoguanidinium acetate]
- Determined concentration in pH 1.2 samples, pH 1.2 (time) [1]: >223 mg/mL
- Determined concentration in pH 1.2 samples, pH 1.2 (time) ([1]; time: acetate 5 h, succinate 0.5 h): >617 mM (5 h)
- XRPD analysis of residual solids from solubility experiment ([2]; pH 1.2): a likely HCl salt (assigned as HCl Pattern 1) was formed
- XRPD analysis of residual solids from solubility experiment ([2]; pH 4.5): remained
- solubility, comparison of salts (in words) ([2]; 0.5 M buffers, succinate Pattern 1 compared with fumarate Pattern 1): highest solubility
- solubility at pH 1.2 (in words) ([2]; pH 1.2): high solubility

Compound: N=C(N)NN=CC=Cc1cccn1-c1ccccc1[N+](=O)[O-].O=S(=O)(O)NC1CCCCC1 [Cyclamic Acid Pattern 5, N-{3-[1-(2-nitrophenyl)-1H-pyrrol-2-yl]-allylidene}-aminoguanidinium cyclamate]
- XRPD diffractogram after storage [3]: consistent with pattern 5

Compound: N=C(N)N/N=C/C=C/c1cccn1-c1ccccc1[N+](=O)[O-] [Fumarate Salt Pattern 1 (Form D)]
- Solubility (mM freebase) ([2]; pH 1.2, thermodynamic solubility): 7.84 mM freebase
- Solubility (mM freebase) ([2]; pH 4.5, thermodynamic solubility): 1.64 mM freebase

Compound: N-{3-[1-(2-nitrophenyl)-1H-pyrrol-2-yl]-allylidene}-aminoguanidine glutaric acid salt [Glutaric Acid Pattern 1]
- XRPD diffractogram after storage [3]: resulted in a new pattern by XRPD (Pattern 4)

Compound: N-{3-[1-(2-nitrophenyl)-1H-pyrrol-2-yl]-allylidene}-aminoguanidinium edisylate [Ethane-1,2-disulfonic Acid Pattern 5]
- XRPD diffractogram after storage [3]: consistent with pattern 1
